Reference: PubChem BioAssay AID2060345 (Molecular Pharmacology Branch, DTP, NCI, 2025)
“And” between values parts separate entries of the source, which are not always exact repeats. Equal values may be shown once.

System: MALME-3M multicell spheroids, viability
Experiment: Anticancer human tumor MALME-3M cell line growth inhibition [TAK];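 note: spheroids exposed to drugs for seven days before readout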;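 for viability, T/C: 100% = DMSO vehicle control viability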
Conditions: for viability, T/C: stronger effect = lower value
Description: Combinatorial screen of targeted agents with TAK-243 and ipatasertib in multi-cell type tumor spheroids
A high-throughput screen of multi-cell type tumor spheroids was designed to identify active combinations of targeted small molecules and TAK-243 or ipatasertib. Complex spheroids include a stromal component modeled by human endothelial cells (HUVEC) and fibroblasts modeled by human mesenchymal stem cells (MSCs). The concentration ranges selected for each drug and investigational agent were based upon clinically achievable concentrations if the clinical Cmax of the agent was known.
Compounds. The drugs and investigational agents: TAK-243 (785004), ipatasertib (767898), everolimus (733504), selumetinib (741078), bortezomib (756655), trametinib (758246), ixazomib (758254), vemurafenib (761431), dabrafenib (764134), sapanisertib (764658), alpelisib (765974), and copanlisib (816437), were obtained from the National Cancer Institute (NCI) Developmental Therapeutics Program Chemical Repository. The FDA-approved anticancer drug set is available from the NCI Developmental Therapeutics Program. […] The stock solutions were prepared in dimethyl sulfoxide (DMSO, Sigma-Aldrich, St. Louis, MO, cat. D2650) at 800-fold the tested concentration and stored at -70 degrees C prior to their use. All drugs and investigational agents were tested over a range starting from a high concentration at or near the clinical Cmax and decreasing in half-log increments. If the clinical Cmax for an agent had not been determined, the highest concentration tested was 10 microM.
NCI60 Cell Culture. NCI60 cell lines were obtained from the NCI Developmental Therapeutics Program Tumor Repository. For each lot of cells, the Repository performed Applied Biosystems AmpFLSTR Identifiler testing with PCR amplification to confirm consistency with the published Identifier STR profile for each cell line. Cells were kept in continuous culture for no more than 20 passages. The optimal seeding densities for each of the cell lines at each time point assessed were determined prior to performing the concentration response studies. Briefly, the NCI60 human tumor lines were grown as monolayers in RPMI 1640 medium supplemented with 10% FBS and 2 mmol/L L-glutamine.
An additional 2 lines were from the NCI60 cell line panel including melanomas, MALME-3M and SK-MEL-2. Pooled donor human umbilical vein endothelial cells (HUVEC, Lonza, cat. CC-2519) and human mesenchymal stem cells (hMSC, Lonza, cat. PT-2501) were purchased from Lonza (Walkersville, MD).
PDMR cell lines were grown in complete medium (DC medium): Dulbecco's modified Eagle's medium (DMEM)/F12 supplemented with 5% fetal bovine serum (FBS), 2 mM L-glutamine, 100 U/mL penicillin and 100 µg/ml streptomycin, 0.4 µg/ml hydrocortisone, 10 ng/ml epidermal growth factor (EGF) recombinant human protein, 24 µg/mL adenine, and 0.1 mg/mL primocin. During culture from frozen stock vials, PDMR cells were cultured in the same medium containing 10 µM Y-27632 (see Table 3). The PDCs were cultured in complete DMEM/F12 media without 10 microM Y-27632 dihydrochloride for at least two passages prior to the screen. The pooled donor HUVEC and hMSC were cultured in endothelial cell growth medium 2 (PromoCell, Heidelberg, Germany, cat. C-22011) and mesenchymal stem cell growth medium 2 (PromoCell, cat. C-28009), respectively. For all experiments, HUVEC and hMSC were used at passages </=5.
For the pre-screen, cell seeding densities were determined from a titration spanning the range from 5,000 to 313 cells per well. The mct-spheroids including 60% malignant cells, 25% HUVEC and 15% MSC dispensed as a mixture into U-bottom Ultra-Low Attachment 384-well plates (Corning, NY)
High-throughput Drug Combination Screening.
Prior to their inoculation into 384-well plates, malignant cells, HUVEC, and hMSC were removed from T flasks using TrypLE express (Thermo Fisher Scientific, cat. 12605036) and harvested by centrifugation for 5 min at 233 x g. […]

[1] = curve of first compound, second compound 0.3 µM
[2] = curve of first compound, second compound 0.949 µM
[3] = curve of first compound, second compound 3 µM
[4] = curve of first compound, second compound 9.49 µM
[5] = curve of first compound, second compound 30 µM

With `CC(C)CC(NC(=O)C(Cc1ccccc1)NC(=O)c1cnccn1)B(O)O` (stereo unspecified) + CC(C)NCC(C(=O)N1CCN(c2ncnc3c2C(C)CC3O)CC1)c1ccc(Cl)cc1 the IC50 [1] was 2.51 nM, the IC50 [2] was 2.26 nM and the IC50 [3] was 2.29 nM. The IC50 [4] was 1.86 nM, the IC50 [5] was 1.05 nM and the viability, T/C (second compound 0.3 µM, first compound 31.6 pM) was 124%. It also gave a viability, T/C (second compound 0.3 µM, first compound 0.0001 µM) of 103%, a viability, T/C (second compound 0.3 µM, first compound 0.000316 µM) of 108% and a viability, T/C (second compound 0.3 µM, first compound 0.001 µM) of 122%. For the same compound, the viability, T/C (second compound 0.3 µM, first compound 0.00316 µM) was 33.9%, the viability, T/C (second compound 0.3 µM, first compound 0.01 µM) was 0.71% and the viability, T/C (second compound 0.949 µM, first compound 31.6 pM) was 113%. For the same compound, the viability, T/C (second compound 0.949 µM, first compound 0.0001 µM) was 110%, the viability, T/C (second compound 0.949 µM, first compound 0.000316 µM) was 107% and the viability, T/C (second compound 0.949 µM, first compound 0.001 µM) was 111%. It also gave a viability, T/C (second compound 0.949 µM, first compound 0.00316 µM) of 25.4%, a viability, T/C (second compound 0.949 µM, first compound 0.01 µM) of 0.85% and a viability, T/C (second compound 3 µM, first compound 31.6 pM) of 86.4%. The viability, T/C (second compound 3 µM, first compound 0.0001 µM) was 95.8%, the viability, T/C (second compound 3 µM, first compound 0.000316 µM) was 91.2% and the viability, T/C (second compound 3 µM, first compound 0.001 µM) was 91.5%. For the same compound, the viability, T/C (second compound 3 µM, first compound 0.00316 µM) was 33.9%, the viability, T/C (second compound 3 µM, first compound 0.01 µM) was 0.73% and the viability, T/C (second compound 9.49 µM, first compound 31.6 pM) was 81%. The viability, T/C (second compound 9.49 µM, first compound 0.0001 µM) was 87.5%, the viability, T/C (second compound 9.49 µM, first compound 0.000316 µM) was 75.5% and the viability, T/C (second compound 9.49 µM, first compound 0.001 µM) was 83.4%. It also gave a viability, T/C (second compound 9.49 µM, first compound 0.00316 µM) of 22.7%, a viability, T/C (second compound 9.49 µM, first compound 0.01 µM) of 0.55% and a viability, T/C (second compound 30 µM, first compound 31.6 pM) of 54.9%. The viability, T/C (second compound 30 µM, first compound 0.0001 µM) was 57.2%, the viability, T/C (second compound 30 µM, first compound 0.000316 µM) was 52% and the viability, T/C (second compound 30 µM, first compound 0.001 µM) was 51.7%. It also gave a viability, T/C (second compound 30 µM, first compound 0.00316 µM) of 13.2% and a viability, T/C (second compound 30 µM, first compound 0.01 µM) of 0.96%.

In the case of `CC(C)n1nc(-c2ccc3oc(N)nc3c2)c2c(N)ncnc21`, the viability, T/C (compound 0.000316 µM) is reported as 78.4% and 94.5%, the viability, T/C (compound 0.001 µM) is reported as 64.4% and 88.7% and the viability, T/C (compound 0.00316 µM) is reported as 63% and 77.5%. The viability, T/C (compound 0.01 µM) was 47.5% and 70.1%, the viability, T/C (compound 0.0316 µM) was 28.3% and 33% and the viability, T/C (compound 0.1 µM) was 10.5% and 13.6%. The IC50 (curve of compound) was 7.44 nM and 18.1 nM.

For `Cc1nc(NC(=O)N2CCCC2C(N)=O)sc1-c1ccnc(C(C)(C)C(F)(F)F)c1` (stereo unspecified), the viability, T/C (compound 0.0316 µM) was 100% and 86.7%, the viability, T/C (compound 0.1 µM) was 98.8% and 96.3% and the viability, T/C (compound 0.316 µM) was 83.6% and 72.6%. For the same compound, the viability, T/C (compound 1 µM) was 70.6% and 81.7%, the viability, T/C (compound 3.16 µM) was 61.6% and 68.2% and the viability, T/C (compound 10 µM) was 50% and 41.9%. For the same compound, the IC50 (curve of compound) was > 10000 nM and 7080 nM.

In the case of `CC(C)(C)c1nc(-c2cccc(NS(=O)(=O)c3c(F)cccc3F)c2F)c(-c2ccnc(N)n2)s1` + CC(C)NCC(C(=O)N1CCN(c2ncnc3c2C(C)CC3O)CC1)c1ccc(Cl)cc1, the IC50 [1] is reported as < 31.6 nM, the IC50 [2] is reported as < 31.6 nM and the IC50 [3] is reported as < 31.6 nM. The IC50 [4] was < 31.6 nM, the IC50 [5] was < 31.6 nM and the viability, T/C (second compound 0.3 µM, first compound 0.0316 µM) was 26.6%. The viability, T/C (second compound 0.3 µM, first compound 0.1 µM) was 23.6%, the viability, T/C (second compound 0.3 µM, first compound 0.316 µM) was 25% and the viability, T/C (second compound 0.3 µM, first compound 1 µM) was 25.8%. For the same compound, the viability, T/C (second compound 0.3 µM, first compound 3.16 µM) was 22.2%, the viability, T/C (second compound 0.3 µM, first compound 10 µM) was 29.6% and the viability, T/C (second compound 0.949 µM, first compound 0.0316 µM) was 27.1%. For the same compound, the viability, T/C (second compound 0.949 µM, first compound 0.1 µM) was 26.2%, the viability, T/C (second compound 0.949 µM, first compound 0.316 µM) was 23.2% and the viability, T/C (second compound 0.949 µM, first compound 1 µM) was 24.8%. For the same compound, the viability, T/C (second compound 0.949 µM, first compound 3.16 µM) was 20.6%, the viability, T/C (second compound 0.949 µM, first compound 10 µM) was 26.2% and the viability, T/C (second compound 3 µM, first compound 0.0316 µM) was 25.4%. It also gave a viability, T/C (second compound 3 µM, first compound 0.1 µM) of 26.8%, a viability, T/C (second compound 3 µM, first compound 0.316 µM) of 21.3% and a viability, T/C (second compound 3 µM, first compound 1 µM) of 20.1%. For the same compound, the viability, T/C (second compound 3 µM, first compound 3.16 µM) was 15.4%, the viability, T/C (second compound 3 µM, first compound 10 µM) was 21.5% and the viability, T/C (second compound 9.49 µM, first compound 0.0316 µM) was 23%. The viability, T/C (second compound 9.49 µM, first compound 0.1 µM) was 21%, the viability, T/C (second compound 9.49 µM, first compound 0.316 µM) was 19.5% and the viability, T/C (second compound 9.49 µM, first compound 1 µM) was 15.6%. For the same compound, the viability, T/C (second compound 9.49 µM, first compound 3.16 µM) was 14.1%, the viability, T/C (second compound 9.49 µM, first compound 10 µM) was 17.1% and the viability, T/C (second compound 30 µM, first compound 0.0316 µM) was 17.1%. For the same compound, the viability, T/C (second compound 30 µM, first compound 0.1 µM) was 18.4%, the viability, T/C (second compound 30 µM, first compound 0.316 µM) was 18.5% and the viability, T/C (second compound 30 µM, first compound 1 µM) was 11.4%. It also gave a viability, T/C (second compound 30 µM, first compound 3.16 µM) of 8.12% and a viability, T/C (second compound 30 µM, first compound 10 µM) of 11.6%.

For `CC(=O)Nc1cccc(-n2c(=O)n(C3CC3)c(=O)c3c(Nc4ccc(I)cc4F)n(C)c(=O)c(C)c32)c1`, the viability, T/C (compound 94.9 pM) was 92.9% and 86.3%, the viability, T/C (compound 0.0003 µM) was 48.6% and 49.9% and the viability, T/C (compound 0.000949 µM) was 20.2% and 18.5%. For the same compound, the viability, T/C (compound 0.003 µM) was 15.9% and 15.3%, the viability, T/C (compound 0.00949 µM) was 9.62% and 9.1% and the viability, T/C (compound 0.03 µM) was 5.56% and 5.65%. For the same compound, the IC50 (curve of compound) was 0.284 nM and 0.293 nM.
